# Results published in patent US6764996B1, “9a-azalides with antibacterial activity” (Abbott Laboratories, priority 1999, dated 2004).
# Assays:
# Test in all cases: In vitro antibacterial activity, agar dilution MIC
# Format in all cases: cell-based
# [1] = system: Staphylococcus aureus 1775; conditions: code GG: Staphylococcus aureus 1775; BHI agar, 35-37° C., 20 to 24 hours; unit assumed
# Protocol: (§1) Representative compounds of the present invention were assayed in vitro for antibacterial activity as follows: Twelve petri dishes containing successive aqueous dilutions of the test compound mixed with 10 mL of sterilized Brain Heart Infusion (BHI) agar (Difco 0418-01-5) were prepared. Each plate was inoculated with 1:100 (or 1:10 for slow-growing strains, such as Micrococcus and Streptococcus) dilutions of up to 32 different microorganisms, using a Steers replicator block. The inoculated plates were incubated at 35-37° C. for 20 to 24 hours. In addition, a control plate, using BHI agar containing no test compound, was prepared and incubated at the beginning and end of each test.
# (§2) An additional plate containing a compound having known susceptibility patterns for the organisms being tested and belonging to the same antibiotic class as the test compound was also prepared and incubated as a further control, as well as to provide test-to-test comparability. Erythromycin A was used for this purpose.
# (§3) After incubation, each plate was visually inspected. The minimum inhibitory concentration (MIC) was defined as the lowest concentration of drug yielding no growth, a slight haze, or sparsely isolated colonies on the inoculum spot as compared to the growth control.
# [2] = system: Staphylococcus epidermidis 3519; conditions: code HH: Staphylococcus epidermidis 3519; BHI agar, 35-37° C., 20 to 24 hours; unit assumed
# Protocol: as §1, §2, §3
# [3] = system: Streptococcus pyogenes PIU 2548; conditions: code NN: Streptococcus pyogenes PIU 2548; BHI agar, 35-37° C., 20 to 24 hours; unit assumed
# Protocol: as §1, §2, §3
# [4] = system: Streptococcus Pneumonia GYR 1171; conditions: code YY: Streptococcus Pneumonia GYR 1171; BHI agar, 35-37° C., 20 to 24 hours; unit assumed
# Protocol: as §1, §2, §3
# [5] = system: Staphylococcus aureus A-5177; conditions: code BB: Staphylococcus aureus A-5177; BHI agar, 35-37° C., 20 to 24 hours; unit assumed
# Protocol: as §1, §2, §3
# [6] = system: Streptococcus agalactiae CMX 508; conditions: code KK: Streptococcus agalactiae CMX 508; BHI agar, 35-37° C., 20 to 24 hours; unit assumed
# Protocol: as §1, §2, §3
# [7] = system: Streptococcus Pneumonia 5649; conditions: code ZA: Streptococcus Pneumonia 5649; BHI agar, 35-37° C., 20 to 24 hours; unit assumed
# Protocol: as §1, §2, §3
# [8] = system: Streptococcus bovis A-5169; conditions: code JJ: Streptococcus bovis A-5169; BHI agar, 35-37° C., 20 to 24 hours; unit assumed
# Protocol: as §1, §2, §3
# [9] = system: Streptococcus pyogenes 930; conditions: code MM: Streptococcus pyogenes 930; BHI agar, 35-37° C., 20 to 24 hours; unit assumed
# Protocol: as §1, §2, §3
# [10] = system: Micrococcusluteus ATCC 4698; conditions: code PP: Micrococcusluteus ATCC 4698; BHI agar, 35-37° C., 20 to 24 hours; unit assumed
# Protocol: as §1, §2, §3
# Escherichiacoli JUHL = conditions: code QQ: Escherichiacoli JUHL; BHI agar, 35-37° C., 20 to 24 hours; unit assumed
# Protocol: as §1, §2, §3
# Candida albicans CCH 442 = conditions: code TT: Candida albicans CCH 442; BHI agar, 35-37° C., 20 to 24 hours; unit assumed
# Protocol: as §1, §2, §3
# [11] = system: Staphylococcus aureus NCTC 10649M; conditions: code EE: Staphylococcus aureus NCTC 10649M; BHI agar, 35-37° C., 20 to 24 hours; unit assumed
# Protocol: as §1, §2, §3
# [12] = system: Mycobacterium smegmatis ATCC 114; conditions: code UU: Mycobacterium smegmatis ATCC 114; BHI agar, 35-37° C., 20 to 24 hours; unit assumed
# Protocol: as §1, §2, §3
# [13] = system: Streptococcus pyogenes EES61; conditions: code LL: Streptococcus pyogenes EES61; BHI agar, 35-37° C., 20 to 24 hours; unit assumed
# Protocol: as §1, §2, §3
# [14] = system: Streptococcus Pneumonia ATCC 6303; conditions: code XX: Streptococcus Pneumonia ATCC 6303; BHI agar, 35-37° C., 20 to 24 hours; unit assumed
# Protocol: as §1, §2, §3
# [15] = system: Haemophilislnfluenzae DILL AMP R; conditions: code WW: Haemophilislnfluenzae DILL AMP R; BHI agar, 35-37° C., 20 to 24 hours; unit assumed
# Protocol: as §1, §2, §3
# [16] = system: Nocardia Asteroides ATCC 99700; conditions: code VV: Nocardia Asteroides ATCC 99700; BHI agar, 35-37° C., 20 to 24 hours; unit assumed
# Protocol: as §1, §2, §3
# Escherichiacoli SS = conditions: code RR: Escherichiacoli SS; BHI agar, 35-37° C., 20 to 24 hours; unit assumed
# Protocol: as §1, §2, §3
# [17] = system: Staphylococcus aureus A-5278; conditions: code CC: Staphylococcus aureus A-5278; BHI agar, 35-37° C., 20 to 24 hours; unit assumed
# Protocol: as §1, §2, §3
# [18] = system: Staphylococcus aureus ATCC 6538P; conditions: code AA: Staphylococcus aureus ATCC 6538P; BHI agar, 35-37° C., 20 to 24 hours; unit assumed
# Protocol: as §1, §2, §3
# [19] = system: Streptococcus Pneumonia 5979; conditions: code ZZ: Streptococcus Pneumonia 5979; BHI agar, 35-37° C., 20 to 24 hours; unit assumed
# Protocol: as §1
# An additional plate containing a compound having known susceptibility patterns for the organisms being tested and belonging to the same antibiotic class as the test compound was also prepared and incubated as a further control, as well as to provide test-to-test comparability.
# as §3
Structure (SMILES),Antibacterial Activity (MIC) [1],Antibacterial Activity (MIC) [2],Antibacterial Activity (MIC) [3],Antibacterial Activity (MIC) [4],Antibacterial Activity (MIC) [5],Antibacterial Activity (MIC) [6],Antibacterial Activity (MIC) [7],Antibacterial Activity (MIC) [8],Antibacterial Activity (MIC) [9],Antibacterial Activity (MIC) [10],Antibacterial Activity (MIC) (Escherichiacoli JUHL),Antibacterial Activity (MIC) (Candida albicans CCH 442),Antibacterial Activity (MIC) [11],Antibacterial Activity (MIC) [12],Antibacterial Activity (MIC) [13],Antibacterial Activity (MIC) [14],Antibacterial Activity (MIC) [15],Antibacterial Activity (MIC) [16],Antibacterial Activity (MIC) (Escherichiacoli SS),Antibacterial Activity (MIC) [17],also measured
"CC[C@H]1OC(=O)[C@H](C)[C@@H](O[C@H]2C[C@@](C)(OC)[C@@H](O)[C@H](C)O2)[C@H](C)[C@@H](O[C@@H]2O[C@H](C)C[C@H](N(C)C)[C@H]2O)[C@](C)(O)C[C@@H](C)C(=O)[C@H](C)[C@@H](O)[C@]1(C)O [Ery. A, Erythromycin A, reference compound]",> 100 µg/mL,0.39 µg/mL,6.2 µg/mL,0.06 µg/mL,3.1 µg/mL,0.05 µg/mL,16 µg/mL,0.02 µg/mL,> 100 µg/mL,0.2 µg/mL,> 100 µg/mL,> 100 µg/mL,0.39 µg/mL,3.1 µg/mL,0.05 µg/mL,0.06 µg/mL,4 µg/mL,0.1 µg/mL,0.78 µg/mL,> 100 µg/mL,Antibacterial Activity (MIC) [18]: 0.2 µg/mL
"C=CCOC1(C)CC(C)CNC(C)C(O)C(C)(O)C(CC)OC(=O)C(C)C(OC2CC(C)(OC)C(O)C(C)O2)C(C)C1OC1OC(C)CC(N(C)C)C1O (stereo not shown) [Example 2, Compound of formula (I): R^1 is —CH2CH═CH2, R^4 is hydrogen, R^5 is hydrogen, R^6 is hydrogen, R^7 is hydrogen, R^8 is hydrogen]",> 100 µg/mL,0.2 µg/mL,6.2 µg/mL,0.06 µg/mL,12.5 µg/mL,0.05 µg/mL,16 µg/mL,0.02 µg/mL,> 100 µg/mL,0.39 µg/mL,50 µg/mL,> 100 µg/mL,0.39 µg/mL,6.2 µg/mL,0.05 µg/mL,0.06 µg/mL,8 µg/mL,0.1 µg/mL,0.78 µg/mL,> 100 µg/mL,Antibacterial Activity (MIC) [19]: > 128 µg/mL; Antibacterial Activity (MIC) [18]: 0.2 µg/mL
"C=CCOC1(C)CC(C)CN(C)C(C)C(O)C(C)(O)C(CC)OC(=O)C(C)C(OC2CC(C)(OC)C(O)C(C)O2)C(C)C1OC1OC(C)CC(N(C)C)C1O (stereo not shown) [Example 3, Compound of formula (I): R^1 is —CH2CH═CH2, R^4 is hydrogen, R^5 is hydrogen, R^6 is methyl, R^7 is hydrogen, R^8 is hydrogen]",> 100 µg/mL,0.39 µg/mL,6.2 µg/mL,0.06 µg/mL,12.5 µg/mL,0.1 µg/mL,8 µg/mL,0.05 µg/mL,> 100 µg/mL,0.39 µg/mL,50 µg/mL,> 100 µg/mL,0.39 µg/mL,6.2 µg/mL,0.05 µg/mL,0.06 µg/mL,8 µg/mL,0.1 µg/mL,0.39 µg/mL,> 100 µg/mL,Antibacterial Activity (MIC) [19]: > 128 µg/mL; Antibacterial Activity (MIC) [18]: 0.2 µg/mL
"C=CCOC1(C)CC(C)CN(C)C(C)C(O)C(C)(O)C(CC)OC(=O)C(C)C(O)C(C)C1OC1OC(C)CC(N(C)C)C1O (stereo not shown) [Example 4, Compound of formula (II): R^1 is —CH2CH═CH2, R^2 is hydrogen, R^3 is —OR^13, R^13 is hydrogen, R^4 is hydrogen, R^5 is hydrogen, R^6 is methyl, R^8 is hydrogen]",> 100 µg/mL,0.39 µg/mL,6.2 µg/mL,0.03 µg/mL,6.2 µg/mL,0.05 µg/mL,8 µg/mL,0.02 µg/mL,> 100 µg/mL,0.39 µg/mL,50 µg/mL,> 100 µg/mL,0.39 µg/mL,6.2 µg/mL,0.05 µg/mL,0.03 µg/mL,4 µg/mL,0.05 µg/mL,0.78 µg/mL,> 100 µg/mL,Antibacterial Activity (MIC) [19]: > 128 µg/mL; Antibacterial Activity (MIC) [18]: 0.39 µg/mL
"CCC1OC(=O)C(C)C(=O)C(C)C(OC2OC(C)CC(N(C)C)C2O)C(C)(OCC=Cc2cnc3ccccc3c2)CC(C)CN(C)C(C)C(O)C1(C)O (stereo not shown) [Example 5, Compound of formula (II): R^1 is —CH2CH═CH-(3-quinolinyl), R^2 and R^3 together are oxo, R^4 is hydrogen, R^5 is hydrogen, R^6 is methyl, R^8 is hydrogen]",> 100 µg/mL,0.2 µg/mL,6.2 µg/mL,0.03 µg/mL,12.5 µg/mL,0.05 µg/mL,8 µg/mL,0.02 µg/mL,> 100 µg/mL,0.39 µg/mL,50 µg/mL,> 100 µg/mL,0.39 µg/mL,6.2 µg/mL,0.05 µg/mL,0.06 µg/mL,4 µg/mL,0.1 µg/mL,0.78 µg/mL,> 100 µg/mL,Antibacterial Activity (MIC) [19]: > 128 µg/mL; Antibacterial Activity (MIC) [18]: 0.2 µg/mL
